Assay results taken from patent US12617769B2, “Chemical compound as thyroid hormone beta receptor agonist and use thereof” (SUNSHINE LAKE PHARMA CO., LTD., priority 2019, dated 2026).
pEC50: −log10 of the molar value.

Experiments:
[1] = molecular target: T1, TRβ (Homo sapiens, UniProt P10828); test: In vitro binding activity, LanthaScreen TR-FRET Thyroid Receptor beta Coactivator Assay; conditions: TRβ-LBD
T1 construct: Then 5 μL of 4×TRα-LBD or TRP-LBD; purchased Invitrogen PV4686
T1 sequence (P10828 217-461 limits assumed): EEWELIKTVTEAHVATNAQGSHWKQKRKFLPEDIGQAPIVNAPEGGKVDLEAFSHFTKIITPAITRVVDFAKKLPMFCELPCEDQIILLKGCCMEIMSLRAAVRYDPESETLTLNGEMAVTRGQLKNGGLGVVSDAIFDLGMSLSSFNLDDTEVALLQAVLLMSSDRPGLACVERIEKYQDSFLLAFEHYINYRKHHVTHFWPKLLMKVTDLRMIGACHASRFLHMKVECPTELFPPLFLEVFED
Experimental: (§1) 2. Detection of TRα or TRβ Binding Activity In Vitro of the Compound of the Present Invention
(§2) • LanthaScreen TR-FRET Thyroid Receptor beta Coactivator Assay kit was purchased from Invitrogen, Cat. No. PV4686; • LanthaScreen TR-FRET Thyroid Receptor alfa Coactivator Assay kit was purchased from Invitrogen, Cat. No. PV4687. Test Method:
(§3) This method was tested using LanthaScreen TR-FRET Thyroid Receptor beta/alfa Coactivator Assay kit. The test compound was dissolved in DMSO and diluted three-fold to obtain a total of 10 concentrations, then the compounds were diluted into solutions containing 2% DMSO with TR-FRET Coregulator Buffer C in the kit. 10 μL of the compounds containing 2% DMSO were taken to a 384-well plate. Then 5 μL of 4×TRα-LBD or TRP-LBD and 5 μL of a mixture containing 0.4 μM fluorescein-SRC2-2 and 8 nM Tb anti-GST antibody were added to each well. After mixing well, the compounds were incubated at room temperature in the dark for 1 h. After 1 h, the fluorescence value (RFU) was read at 520 nm and 495 nm using PHERAstar FSX microplate reader from BMG LABTECH. The emission signal at 520 nm was divided by the emission signal at 495 nm to calculate the TR-FRET ratio.

[2] = molecular target: T2, TRα (Homo sapiens, UniProt P10827); test: In vitro binding activity, LanthaScreen TR-FRET Thyroid Receptor alfa Coactivator Assay; conditions: TRα-LBD
T2 construct: Then 5 μL of 4×TRα-LBD or TRP-LBD; purchased Invitrogen PV4687
T2 sequence (P10827 163-410 isoform P10827-2 limits assumed, other chains not shown): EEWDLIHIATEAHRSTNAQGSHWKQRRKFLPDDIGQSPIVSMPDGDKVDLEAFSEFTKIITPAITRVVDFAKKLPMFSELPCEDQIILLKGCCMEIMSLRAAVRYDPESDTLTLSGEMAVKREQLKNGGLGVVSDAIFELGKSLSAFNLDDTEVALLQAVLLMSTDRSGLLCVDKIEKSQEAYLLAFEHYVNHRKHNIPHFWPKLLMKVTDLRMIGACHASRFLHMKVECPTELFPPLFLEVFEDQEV
Experimental: as §1, §2, §3

[3] = Pharmacokinetic determination in SD rats (plasma, LC/MS/MS); type: in vivo; conditions: SD rat; for pharmacokinetic properties (in words): intravenous injection or oral gavage, compared to control MGL3196; for AUC(0-t) / Cmax / Tmax / half-life: male, plasma
Text: Test purpose: The following method is used to determine the pharmacokinetics of the compounds of the present invention.
Experimental reagents and test compounds: Propranolol (internal standard), methanol, ammonium acetate, K2EDTA (potassium ethylenediamine tetraacetate), formic acid, acetonitrile, MTBE (methyl tert-butyl ether), KolliphorHS15 (polyethylene glycol 12 hydroxystearate), DMSO (dimethyl sulfoxide) are commercially available; • SD rat: male, 180-220 g, 7-8 weeks old, purchased from Hunan Slake Experimental Animal Co., Ltd. Test Method: 1. Preparation of Test Compounds
Each test compound prepared was completely dissolved in a mixture of 5% DMSO+5% KolliphorHS 15+90% Saline according solubility property thereof.
(1) Preparation of the test compound stock solution: an appropriate amount of test compound was precisely weighed, dissolved in DMSO, diluted to 1 mg/mL with acetonitrile, and shaken well to obtain the test compound stock solution, which was stored at −20° C. for use.
(2) Preparation of internal standard solution: a certain amount of 1 mg/mL Propranolol stock solution was precisely drawn and diluted to 100 ng/mL with water.
The liquid-liquid extraction method was used to process the samples for chromatographic separation. On a triple quadrupole tandem mass spectrometer, quantitative analysis was performed using multiple reactive ion monitoring (MRM), and the concentration were calculated using instrument quantitative software.
30 μL of plasma sample was accurately drawn, and added with 250 μL of internal standard. The mixture was mixed well by vortexing. The mixture was extracted once with 1 mL of MTBE, centrifuged at 13,000 rpm, 4° C. for 2 min, then 800 μL of supernatant was sucked, and evaporated in a 96-well nitrogen blower. The residue was re-dissolved with 150 μL of methanol/water (v/v=50/50), mixed by vortexing, and injected. The injection volume was 8 μL.
An appropriate amount of compound stock solution was accurately drawn, and diluted with acetonitrile to obtain standard series solution. 20 μL of each of the above standard series solutions was accurately drawn, added with 180 μL of blank plasma, and mixed well by vortexing to prepare plasma samples equivalent to plasma concentrations of 3, 5, 10, 30, 100, 300, 1,000, 3,000, 5,000, and 10,000 ng/mL, which were all processed according to “pretreatment of plasma samples”. Two samples were analyzed for each concentration to establish a standard curve.
The content of the test compound in the plasma of rats after administration of different compounds was determined by LC/MS/MS method.
Pharmacokinetic parameters were calculated using a noncompartmental method by WinNonLin 6.1 software.

| SMILES | pEC50 [1] | pEC50 [2] | pharmacokinetic properties (in words) [3] | AUC(0-t) ([3]; po, ig, 5 mg/kg) | Cmax ([3]; po, ig, 5 mg/kg) | Tmax ([3]; po, ig, 5 mg/kg) | half-life ([3]; po, ig, 5 mg/kg) | AUC(0-t) ([3]; iv, 1 mg/kg) | Cmax ([3]; iv, 1 mg/kg) | Tmax ([3]; iv, 1 mg/kg) | half-life ([3]; iv, 1 mg/kg) |
| --- | --- | --- | --- | --- | --- | --- | --- | --- | --- | --- | --- |
| COC(=O)c1nn(-c2cc(Cl)c(Oc3ccc(=O)n(Cc4ccccc4)c3)c(Cl)c2)c(=O)[nH]c1=O [Example 16, Methyl 2-(4-((1-benzyl-6-oxo-1,6-dihydropyridin-3-yl)oxy)-3,5-dichlorophenyl)-3,5-dioxo-2,3,4,5-tetrahydro-1,2,4-triazine-6-carboxylate] | 6.44 | 4.79 | excellent pharmacokinetic properties | 33600 ng·h/mL | 12700 ng/mL | 0.5 h | 3.05 h | 17400 ng·h/mL | 17300 ng/mL | 0.083 h | 4 h |
| O=c1cnn(-c2cc(Cl)c(Oc3ccc(=O)n(Cc4ccccc4)c3)c(Cl)c2)c(=O)[nH]1 [Example 29, 2-(4-((1-benzyl-6-oxo-1,6-dihydropyridin-3-yl)oxy)-3,5-dichlorophenyl)-1,2,4-triazine-3,5-dione] | 7.96 | 6.43 | excellent pharmacokinetic properties | 115000 ng·h/mL | 20000 ng/mL | 0.417 h | 2.89 h | 16900 ng·h/mL | 8920 ng/mL | 0.083 h | 2.38 h |
| N#Cc1nn(-c2cc(Cl)c(Oc3ccc(=O)n(CCO)c3)c(Cl)c2)c(=O)[nH]c1=O [Example 32, 2-(3,5-dichloro-4-((1-(2-hydroxyethyl)-6-oxo-1,6-dihydropyridin-3-yl)oxy)phenyl)-3,5-dioxo-2,3,4,5-tetrahydro-1,2,4-triazine-6-carbonitrile] | 5.82 | 4.64 |  |  |  |  |  |  |  |  |  |
| O=c1[nH]c(=O)n(-c2cc(Cl)c(Oc3ccc(=O)n(Cc4ccccc4)c3)c(Cl)c2)nc1CO [Example 33, 2-(4-((1-benzyl-6-oxo-1,6-dihydropyridin-3-yl)oxy)-3,5-dichlorophenyl)-6-(hydroxymethyl)-1,2,4-triazine-3,5(2H,4H)-dione] | 6.64 | 5.49 |  |  |  |  |  |  |  |  |  |
| Cc1cc(-n2nc(C#N)c(=O)[nH]c2=O)cc(C)c1Oc1ccc(=O)n(Cc2ccccc2)c1 [Example 34, 2-(4-((1-benzyl-6-oxo-1,6-dihydropyridin-3-yl)oxy)-3,5-dimethylphenyl)-3,5-dioxo-2,3,4,5-tetrahydro-1,2,4-triazine-6-carbonitrile] | 6.44 | 5.14 |  |  |  |  |  |  |  |  |  |
| N#Cc1nn(-c2cc(Br)c(Oc3ccc(=O)n(Cc4ccccc4)c3)c(Br)c2)c(=O)[nH]c1=O [Example 35, 2-(4-((1-benzyl-6-oxo-1,6-dihydropyridin-3-yl)oxy)-3,5-dibromophenyl)-3,5-dioxo-2,3,4,5-tetrahydro-1,2,4-triazine-6-carbonitrile] | 7.77 | 6.33 |  |  |  |  |  |  |  |  |  |
| O=c1cnn(-c2cc(Cl)c(Oc3ccc(=O)n(Cc4ccc(F)cc4)c3)c(Cl)c2)c(=O)[nH]1 [Example 36, 2-(3,5-dichloro-4-((1-(4-fluorobenzyl)-6-oxo-1,6-dihydropyridin-3-yl)oxy)phenyl)-1,2,4-triazine-3,5(2H,4H)-dione] | > 8.34 | 7.04 |  |  |  |  |  |  |  |  |  |
| Cc1cc(Oc2c(Cl)cc(-n3nc(C#N)c(=O)[nH]c3=O)cc2Cl)cn(Cc2ccccc2)c1=O [Example 37, 2-(4-((1-benzyl-5-methyl-6-oxo-1,6-dihydropyridin-3-yl)oxy)-3,5-dichlorophenyl)-3,5-dioxo-2,3,4,5-tetrahydro-1,2,4-triazine-6-carbonitrile] | 6.61 | < 4.00 |  |  |  |  |  |  |  |  |  |
| N#Cc1nn(-c2cc(Cl)c(Oc3cc(Cl)c(=O)n(Cc4ccccc4)c3)c(Cl)c2)c(=O)[nH]c1=O [Example 38, 2-(4-((1-benzyl-5-chloro-6-oxo-1,6-dihydropyridin-3-yl)oxy)-3,5-dichlorophenyl)-3,5-dioxo-2,3,4,5-tetrahydro-1,2,4-triazine-6-carbonitrile] | 6.42 | < 4.48 |  |  |  |  |  |  |  |  |  |
| CC(C)c1cc(Oc2c(Cl)cc(-n3nc(C#N)c(=O)[nH]c3=O)cc2Cl)n[nH]c1=O [MGL3196, reference compound] |  |  |  | 20700 ng·h/mL | 2610 ng/mL | 2 h | 4.26 h | 8840 ng·h/mL | 5990 ng/mL | 0.083 h | 2.74 h |
